Measurements from patent US20020082264A1, “Medicaments for viral diseases” (priority 2000, published 2002).
Where a name gives a salt, the structure may show the parent alone.

Tested on: hepatitis B virus
Assay: antiviral action on hepatitis B virus in HepG2.2.15 cells (HBV DNA dot-blot hybridization)
Type: cell-based
Settings: 96 h, 2 x 4 days incubation, intra- or extracellular hepatitis B-specific DNA band reduced by 50% vs untreated sample
Method: The antiviral action of the compounds according to the invention on hepatitis B virus was investigated by methods based on those described by M. A. Sells et al., Proc. Natl. Acad. Sci. 84, 1005-1009 (1987) and B. E. Korba et al., Antiviral Research 19, 55-70 (1992).
The antiviral tests were carried out in 96-well microtitre plates. The first vertical row of the plate received only growth medium and HepG2.2.15 cells. It served as virus control.
Stock solutions of the test compounds (50 mM) were initially dissolved in DMSO, and further dilutions were prepared in the HepG2.2.15 growth medium. The compounds according to the invention were usually pipetted in a test concentration of 100 μM (lst test concentration) in each case into the second vertical test row of the microtitre plate and subsequently diluted in twofold steps 2^10 times in growth medium +2% by weight fetal calf serum (volume 25 μl).
Each well of the microtitre plate then contained 225 μl of HepG2.2.15 cell suspension (5×10^4 cells/ml) in growth medium +2% by weight of fetal calf serum. The test mixture was incubated at 37° C. and 5% CO2 (v/v) for 4 days.
The supernatant was then aspirated off and discarded, and the wells received 225 μl of freshly prepared growth medium. The compounds according to the invention were each added anew as 10-fold concentrated solution in a volume of 25 μl. The mixtures were incubated for a further 4 days.
The supematants/cells were then harvested and sucked by means of a vacuum onto 96-well dot-blot chambers covered with a nylon membrane (in accordance with the manufacturer's information).
After the supernatants or lysed cells had been transferred to the nylon membrane of the blot apparatus (see above), the intra- or extracellular supernatants of the HepG2.2.15 cells were denatured (1.5 M NaCl/0.5 N NaOH), neutralized (3 M NaCl/0.5 M Tris HCl, pH 7.5) and washed (2× SSC). The DNA was then baked onto the membrane by incubating the filters at 120° C. for 2-4 hours.
Detection of the viral DNA from the treated HepG2.2.15 cells on the nylon filters was easily carried out with non-radioactive, digoxigenin-labelled hepatitis B-specific DNA probes, each of which was labelled with digoxigenin, purified and employed for the hybridization in accordance with the manufacturer's information.
The prehybridization and hybridization took place in 5× SSC, 1× blocking reagent, 0.1% by weight N-lauroylsarcosine, 0.02% by weight SDS and 100 μg of herring sperm DNA. The prehybridization took place at 60° C. for 30minutes, and the specific hybridization with 20 to 40 ng/ml of the digoxigenized, denatured HBV-specific DNA took place at 60° C. for 14 hours. The filters were then washed.
The immunological detection of the digoxigenin-labelled DNA took place in accordance with the manufacturer's information:
The filters were washed and prehybridized in a blocking reagent (in accordance with the manufacturer's information). Hybridization was then carried out with an anti-DIG antibody coupled to alkaline phosphatase for 30 minutes. After a washing step, the substrate of alkaline phosphatase, CSPD, was added, incubated with the filters for 5 minutes, then packed in plastic film and incubated at 37° C. for a further 15 minutes. The chemiluminescence of the hepatitis B-specific DNA signals was visualized by exposing the filters to an X-ray film (incubation depending on signal strength: 10 minutes to 2 hours).
The half-maximum inhibitory concentration (IC50, 50% inhibitory concentration) was determined as the concentration at which the intra- or extracellular hepatitis B-specific band was reduced by the compound according to the invention by 50% compared with an untreated sample.

| SMILES | IC50 [nM] |
| --- | --- |
| N#CCCC1C(=O)c2ccc(-c3cccc(N)c3)cc2OC12CCCCC2 (stereo not drawn) [Example 132, 3-(2-Cyanoethyl)-7-(3-aminophenyl)spiro[2H-1-benzopyran-2,1′-cyclohexan]-4(3H)-one Hydrochloride] | 2 to 120 |
| Cc1cccc(-c2ccc3c(c2)OC2(CCCCC2)C(CCC#N)C3=O)c1 (stereo not drawn) [Example 76] | 2 to 120 |
| N#CCCC1C(=O)c2ccc(-c3ccc(F)c(F)c3)cc2OC12CCCC2 (stereo not drawn) [Example 82] | 2 to 120 |
| N#CCCC1C(=O)c2ccc(-c3cccc([N+](=O)[O-])c3)cc2OC12CCCC2 (stereo not drawn) [Example 116] | 2 to 120 |
| N#CCCC1C(=O)c2ccc(-c3ccc(F)c(F)c3)cc2OC12CCC2 (stereo not drawn) [Example 99] | 2 to 120 |
| N#CCCC1C(=O)c2ccc(-c3cccc(C#N)c3)cc2OC12CCCC2 (stereo not drawn) [Example 97] | 2 to 120 |

Tested on: not given
Assay: not given
Settings: not given

| SMILES | melting point [°C] |
| --- | --- |
| N#CCCC1(CCC#N)C(=O)c2ccc(Br)cc2OC12CCCCC2 | 145 to 149 |
| N#CCCC1C(=O)c2cc(F)c(F)cc2OC12CCCCC2 (stereo not drawn) | 80 |
| Cc1cccc(-c2ccc3c(c2)OC2(CCCCC2)C(CCC#N)C3=O)c1 (stereo not drawn) [Example 76] | 86 to 90 |
| O=C(O)CCC1C(=O)c2ccc(-c3ccccc3)cc2OC12CCCCC2 (stereo not drawn) | 196 |
| N#CCCC1C(=O)c2ccc(-c3ccc(F)cc3)cc2OC12CCCCC2 (stereo not drawn) | 61 to 63 |
| N#CCCC1(CCC#N)C(=O)c2ccc(-c3cccnc3)cc2OC12CCCCC2 | 190 to 195 |
